# Measurements taken from PMC12757379 (Frontiers in Pharmacology, 2025).
# Legend:
# [1] = molecular target: T1, farnesoid X receptor (FXR) (Homo sapiens, UniProt Q96RI1); experiment: SPR (Biacore T200); also frontal affinity chromatography KD […]; assay type: binding
# T1 construct: gene NR1H4; human FXR protein (His Tag; Cat: 17624-H07E)
# T1 sequence (Q96RI1 1-486): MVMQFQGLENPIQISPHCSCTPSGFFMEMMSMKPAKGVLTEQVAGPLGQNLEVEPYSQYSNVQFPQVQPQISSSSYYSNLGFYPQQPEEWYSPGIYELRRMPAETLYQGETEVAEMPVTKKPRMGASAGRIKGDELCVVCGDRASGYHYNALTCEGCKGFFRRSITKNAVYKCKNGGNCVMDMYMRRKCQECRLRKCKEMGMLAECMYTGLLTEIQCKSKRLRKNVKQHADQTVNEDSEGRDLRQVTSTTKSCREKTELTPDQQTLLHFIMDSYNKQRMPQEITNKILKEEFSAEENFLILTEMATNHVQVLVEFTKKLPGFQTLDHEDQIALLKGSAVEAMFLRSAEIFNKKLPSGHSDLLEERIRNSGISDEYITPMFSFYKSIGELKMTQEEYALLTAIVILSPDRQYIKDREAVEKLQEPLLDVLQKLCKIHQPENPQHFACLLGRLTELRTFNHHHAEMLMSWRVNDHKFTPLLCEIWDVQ
# [2] = molecular target: T1, farnesoid X receptor (FXR); experiment: retention of standard on immobilized-FXR affinity column ([…]D biochromatography); assay type: binding
Compound,Kd [1],retention of standard on immobilized-FXR affinity column (2D biochromatography) [2]
COc1cc(O)c2c(c1)C(=O)c1cc(C)cc(O)c1C2=O [physcion],30.3 µM,–
O=C1c2cccc(O)c2C(=O)c2c(O)cc(CO)cc21 [aloe-emodin],–,"emodin, physcion, aloe-emodin, and TSG exhibited distinct retentions, thereby confirming their strong binding affinities for FXR"
